Laboratory results from the supplement of paper PMC10307832.

Each cell line was assayed with O=C(O)C(Cc1ccccc1[N+](=O)[O-])=NNc1nc(-c2ccc(Cl)c(Cl)c2)cs1 (mixture of isomers) [4EGI-1] + NC(=O)Nc1cc(-c2cccc(F)c2)sc1C(=O)N[C@H]1CCCNC1 [AZD7762] (partner 0.2 µM) (assay: relative viability (nuclei count vs DMSO), 5 days (fraction); higher = more cells survive). Settings: first compound 0.5 µM.
Procedure, shortened: (§1)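 Medians of duplicate plates are given as relative viability. That measure is the nuclei count in treated wells divided by the count in vehicle wells. Counts were taken on 4× images of lung cancer cell lines in 1536-well plates, 5 days after pin-tool dosing the day after seeding with one drug alone or a fixed anchor-drug dose plus five library-drug doses (not always all listed) in √10 steps.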
For NCI-H2405, the relative viability was 0.746. NCI-H3122 was tested, and the relative viability was 1.01. Work on PC-3 [JPC-3] yielded a relative viability of 0.845. PC-14 was tested, and the relative viability was 0.342. RERF-LC-KJ gave a relative viability of 0.984.

Same assay, conditions: first compound 1.581 µM
For NCI-H3122, the relative viability was 0.972. Work on RERF-LC-KJ yielded a relative viability of 0.605.

Same assay, conditions: first compound 5 µM
NCI-H2405 showed a relative viability of 0.851. With NCI-H3122 the relative viability was 0.957. Cell Line PC-3 [JPC-3] has a relative viability of 0.868. Cell Line PC-14 has a relative viability of 0.367. RERF-LC-KJ was tested, and the relative viability was 1.11.

Same assay, conditions: first compound 15.81 µM
Work on NCI-H2405 yielded a relative viability of 0.692. With NCI-H3122 the relative viability was 0.926. PC-3 [JPC-3] showed a relative viability of 0.519. In the case of PC-14, the relative viability is reported as 0.117. RERF-LC-KJ showed a relative viability of 0.669.

Same assay, conditions: first compound 50 µM
NCI-H2405 was tested, and the relative viability was 0.285. Cell Line NCI-H3122 has a relative viability of 0.48. Cell Line PC-3 [JPC-3] has a relative viability of 0.323. PC-14 showed a relative viability of 0.0594. RERF-LC-KJ gave a relative viability of 0.604.

What follows are cell lines tested with CN1CCN(CC1)C2=CC(=C(C=C2)NC3=NC=C4C(=N3)N(C5=CC=CC=C5C(=O)N4C)C)OC [XMD8-85] + O=C(c1cc(Cc2n[nH]c(=O)c3ccccc23)ccc1F)N1CCN(C(=O)C2CC2)CC1 [Olaparib] (partner 8 µM) in the same assay as above. Settings: first compound 0.08 µM.
Procedure, shortened: as §1
With NCI-H2405 the relative viability was 0.908. In the case of NCI-H3122, the relative viability is reported as 0.574. Cell Line PC-3 [JPC-3] has a relative viability of 1.11. For PC-14, the relative viability was 0.253. RERF-LC-KJ showed a relative viability of 1.05.

Same assay, conditions: first compound 0.253 µM
NCI-H2405 gave a relative viability of 0.919. NCI-H3122 gave a relative viability of 0.673. PC-3 [JPC-3] showed a relative viability of 1.22. In the case of PC-14, the relative viability is reported as 0.213. Cell Line RERF-LC-KJ has a relative viability of 0.927.

Same assay, conditions: first compound 0.8 µM
NCI-H2405 showed a relative viability of 0.949. NCI-H3122 was tested, and the relative viability was 0.691. PC-3 [JPC-3] was tested, and the relative viability was 1.25. With PC-14 the relative viability was 0.229. Cell Line RERF-LC-KJ has a relative viability of 0.929.

Same assay, conditions: first compound 2.53 µM
In the case of NCI-H2405, the relative viability is reported as 0.859. NCI-H3122 was tested, and the relative viability was 0.762. PC-3 [JPC-3] gave a relative viability of 1.16. For PC-14, the relative viability was 0.237. Cell Line RERF-LC-KJ has a relative viability of 0.872.

Same assay, conditions: first compound 8 µM
For NCI-H2405, the relative viability was 0.817. NCI-H3122 gave a relative viability of 0.676. For PC-3 [JPC-3], the relative viability was 0.978. PC-14 gave a relative viability of 0.14. With RERF-LC-KJ the relative viability was 0.769.

These cell lines were tested with O=C(O)C(Cc1ccccc1[N+](=O)[O-])=NNc1nc(-c2ccc(Cl)c(Cl)c2)cs1 (mixture of isomers) [4EGI-1] + CS(=O)(=O)N1CCN(Cc2cc3nc(-c4cccc5[nH]ncc45)nc(N4CCOCC4)c3s2)CC1 [Pictilisib] (partner 1 µM) in the same assay as above. Settings: first compound 0.5 µM.
Procedure, shortened: as §1
NCI-H2405 was tested, and the relative viability was 0.471. Work on NCI-H3122 yielded a relative viability of 0.599. PC-3 [JPC-3] gave a relative viability of 0.772. With PC-14 the relative viability was 0.879. With RERF-LC-KJ the relative viability was 0.636.

Same assay, conditions: first compound 1.581 µM
NCI-H2405 showed a relative viability of 0.355. NCI-H3122 showed a relative viability of 0.531. Work on PC-3 [JPC-3] yielded a relative viability of 0.826. For PC-14, the relative viability was 0.464. With RERF-LC-KJ the relative viability was 0.42.

Same assay, conditions: first compound 5 µM
NCI-H2405 gave a relative viability of 0.547. NCI-H3122 gave a relative viability of 0.632. PC-3 [JPC-3] showed a relative viability of 0.706. In the case of PC-14, the relative viability is reported as 0.602. For RERF-LC-KJ, the relative viability was 0.468.

Same assay, conditions: first compound 15.81 µM
NCI-H2405 showed a relative viability of 0.571. NCI-H3122 showed a relative viability of 0.635. In the case of RERF-LC-KJ, the relative viability is reported as 0.357.

Same assay, conditions: first compound 50 µM
Work on NCI-H2405 yielded a relative viability of 0.518. Cell Line NCI-H3122 has a relative viability of 0.412. PC-3 [JPC-3] was tested, and the relative viability was 0.458. With PC-14 the relative viability was 0.704. With RERF-LC-KJ the relative viability was 0.581.

What follows are cell lines tested with O=C(O)C(Cc1ccccc1[N+](=O)[O-])=NNc1nc(-c2ccc(Cl)c(Cl)c2)cs1 (mixture of isomers) [4EGI-1] + Nc1ncn([C@H]2C[C@H](O)[C@@H](CO)O2)c(=O)n1 [Decitabine] (partner 2 µM) in the same assay as above. Settings: first compound 0.5 µM.
Procedure, shortened: as §1
Cell Line NCI-H2405 has a relative viability of 0.791. NCI-H3122 was tested, and the relative viability was 0.452. PC-3 [JPC-3] was tested, and the relative viability was 0.95. Cell Line PC-14 has a relative viability of 0.227. RERF-LC-KJ showed a relative viability of 0.828.

Same assay, conditions: first compound 1.581 µM
With NCI-H3122 the relative viability was 0.487.

Same assay, conditions: first compound 5 µM
NCI-H2405 gave a relative viability of 0.755. NCI-H3122 was tested, and the relative viability was 0.454. In the case of PC-3 [JPC-3], the relative viability is reported as 0.771. With PC-14 the relative viability was 0.222. RERF-LC-KJ gave a relative viability of 0.609.

Same assay, conditions: first compound 15.81 µM
With NCI-H2405 the relative viability was 0.734. With NCI-H3122 the relative viability was 0.521. Cell Line PC-3 [JPC-3] has a relative viability of 0.498. PC-14 showed a relative viability of 0.13. With RERF-LC-KJ the relative viability was 0.444.

Same assay, conditions: first compound 50 µM
Work on NCI-H2405 yielded a relative viability of 0.478. In the case of NCI-H3122, the relative viability is reported as 0.351. With PC-3 [JPC-3] the relative viability was 0.53. For PC-14, the relative viability was 0.0662. RERF-LC-KJ showed a relative viability of 0.285.
